Test results: US11478526B2, “Methods of reducing neuroinflammation or toxicity induced by amyloid beta (abeta) using glucocorticoid induced leucine zipper (GILZ) analog peptides” (INDIANA UNIVERSITY RESEARCH AND TECHNOLOGY CORPORATION, priority 2016, dated 2022)

Experiments:
[1] = tested on: primary human fetal brain cells (HFB); test: CTG viability of primary human fetal brain cultures with or without Aβ1-42; format: cell-based; settings: for viability of Aβ1-42 exposed HFB cells: Aβ1-42 10 μM
Protocol: Functional assays in human primary mixed brain cultures (HFB). Primary cultures of mixed HFB were prepared from the brain parenchyma of aborted fetuses (80-100 days gestational age). The tissues were obtained from the Birth Defects Research Laboratory (BDRL) at the University of Washington, Seattle with approval from the Indiana University Institutional Review Board (IRB). The IRB determined that the use of anonymous human biological materials received from this depository is not considered as human subjects research (supplementary document, s1). The NIH funded BDRL tissue distribution program operates separately in full compliance with all relevant state and federal laws and regulations with donors providing written informed consent.
Fetal brain materials (10-20 g) were shipped overnight in chilled Hibernate-E medium (Invitrogen) supplemented with B27 (Invitrogen), GlutaMAX (Invitrogen) and antibiotic-antimycotic solution (Cellgro). HFB were prepared and cultured as described. Briefly, cells were cultured in Neurobasal medium (Invitrogen) without phenol red supplemented with 1×B27, […] GlutaMAX, 1×antibiotic cocktail, 5 ng/mL recombinant fibroblast growth factor 2 (bFGF) (Invitrogen), and 2 μL/mL Normocin (InVivoGen, San Diego, Calif., USA). Cells were counted and seeded onto poly-D-lysine (Sigma-Aldrich) coated 24-well plates (Corning, Lowell, Mass., USA) at 1.5×10^5 cells per well and maintained at 37° C. in a 5% CO2 incubator. Half media changes were performed every 4th day of culture and morphology was monitored via phase contrast microscopy. Culture medium was removed from cells on day 17 (DIV17) and replaced with Neurobasal medium with B27. […] Cells and conditioned media were harvested and stored for further analysis. Relative ATP concentration was measured using the CTG kit (Promega). Data is presented as ΔRLU=RLU of Aβ1-42 exposed cells-RLU unexposed cells. Conditioned media collected were assessed for specific cytokines using the OptEIA kits (BD Biosciences). Nuclear and cytoplasmic fractions were extracted using the CelLytic™ NuCLEAR™ Extraction Kit (Sigma) following manufacturer's protocol. Five microgram of nuclear extracts was incubated in a 96-well plate coated with oligonucleotides containing the NF-κβ consensus nucleotide sequence (5′-[…]-3′) (SEQ ID NO: 30). The activated NF-κβ bound to DNA was detected by anti-p65 antibody followed by a peroxidase coupled secondary antibody and substrate using the TransAM kit protocol (Active Motif). Nuclear extracts of Raji cells was used as the positive control.
Select PGA protects against Aβ1-42 induced toxicity, prevents p65 activation and cytokine response in human fetal brain (HFB) cells. […] Viability in terms of relative luminescent Units (RLU) was quantified using a Glowmax luminometer (Promega, Wis.). Data are presented as ARLU=RLU of Aβ1-42 exposed cells-RLU of unexposed cells. […] The mean RLU of vehicle treated HFB varied between 7352.75+/−1265.2 and 16157.5+/−4950. Average RLU of cultures exposed to Aβ1-42 varied between 6067.25+/−903.05 and 11574.25+/−4139.3 in different experiments. […] The culture supernatants were assessed for cytokines by ELISA (R&D Systems, Minn.). […] Primary HFB cultured similarly and harvested at the end of 4 hours was assessed for nuclear p65 using TransAM kit for NF-κB p65 (Active Motif, Calif.).

[2] = tested on: LPS induced neuroinflammation; test: LPS induced neuroinflammation: real time PCR of brain tissue; format: in vivo, mouse; settings: 25 mg/kg i.v. alternate days, day 7
Protocol: Animals and lipopolysaccharide induced neuroinflammation: Male C57/6J mice weighing 32 to 37 grams were housed five per cage at a temperature of 22±2° C. with 12 hour light/12 hour dark cycles with free access to laboratory food and water. Lipopolysaccharides (LPS) from Escherichia coli 026:B6, =10,000 EU/mg, purified by phenol extraction was purchased from Sigma (Sigma Aldrich, Mo., USA). The mice were randomly divided into seven groups: LPS, LPS+GA-1 or GA-2 or CP-1 or CP-2 or CP-3 or TAT. The LPS was administered intraperitoneally at […] in 100 μl of sterile saline followed by corn oil in the morning daily for six days. The GA or CP was administered intravenously at 25 mg/kg in 100 μl of sterile saline on alternate days. Additional control group included mice receiving saline alone. All animals were sacrificed on day 7.
Real time polymerase chain reaction. Total cellular RNA was isolated from each brain tissue using Qiagen kit (Invitrogen, Carlsbad, Calif.) following manufacturer's protocol and reverse transcribed using iScript cDNA synthesis kit (Biorad, Calif.). Equal amount of cDNA measured by the Nanodrop (ThermoFisher Scientific, Waltham, USA) was used for amplification of IL-1β, IL-12, CD14, BclXL and Bcl2. Real time PCR was performed using SYBR green/ROX qPCR master mix (SA Biosciences, Frederick, Md.) on the ABI Prism 7000 sequence detection system (Applied Biosystem, Foster City, Calif., USA). Each reaction contains 2×12.5 μl of master mix, 1 μl of 10 μM of primers and 50 ng of the cDNA, to a total volume of 25 μl. The thermal cycling conditions included an initial denaturation step at 50° C. for 2 min, 95° C. for 3 min, 39 cycles at 95° C. for 30 s, annealing temperature at 62° C. for 30 s and extension at 72° C. for 30 s.
The gene specific threshold cycle (Ct) for each sample (ΔCt) was corrected by subtracting the Ct for the housekeeping gene β-actin. Untreated controls were chosen as the reference samples. The ΔCt for all experimental samples was subtracted by the ΔCt for the control samples (ΔΔCt).The difference in each gene specific threshold between the sample from vehicle treated and GA or CP treated cells was determined to obtain the relative change in the specific mRNA. The magnitude of change in the mRNA was expressed as 2^−ΔΔCt. Each measurement of a sample was performed in duplicates.

[3] = tested on: differentiated SK-N-SH neuroblastoma cells; test: Cellular morphology and CTG viability in differentiated neuroblasts; settings: 50 μM or 500 μM, 24 hours; for cell morphology: phase contrast
Protocol: Cell Titer-Glo (CTG) luminescent cell viability assay: Human neuroblastoma (SK-N-SH) cells cultured in minimal essential medium (MEM) supplemented with 1% fetal bovine serum (FBS) and 1% penicillin (100 U/ml)/streptomycin (100 μg/ml) were differentiated with 10 μM all-trans retinoic acid for 7 days. After resting for 24 hours in the low serum medium, the cells were seeded in 24 well (10^5 cells/well) culture plates in fresh medium and incubated with 50 μM or 500 μM of individual GA or control peptide for additional 24 hours. The cultures were then photographed using a phase contrast Leica microscope (Leica Microsystems Inc, Buffalogrove, Ill.). Subsequently, the cells were harvested, lysed with lysis buffer (M-PER, Pierce) and the lysate was assessed for metabolic activity using the luciferase based CTG assay (CTG, Promega, Madison, Wis.). Briefly, cell lysate (5 μL) in 25 μL of phosphate buffered saline was transferred to an opaque white 96-well plate, and then 30 μL of CTG assay solution was added. The relative luminescent signal (RLT) was quantified using a Glowmax luminometer (Promega).

[4] = LD50 predicted from in-vitro IC50 by regression (Speilmann method); settings: for LD50 estimated from IC50: Log (LD50)=0.506×(log IC50)+0.475, body weight; for LD50 (mM): score 1/0
Protocol: Lactate dehydrogenase (LDH) assay: To detect direct GA-induced cell lysis we performed LDH release assays (Roche Molecular Diagnostics). […] Approximately 5×10^4 U373 cells/well were cultured in 96-well plates in the presence of increasing concentrations of individual GA or control peptide from 0.5 μM to 500 μM. Cells treated with 2% triton-X 100 (Sigma Aldrich, St. Louis, Mo.) for 10 minutes served as positive control. Untreated cells served as controls for spontaneous LDH-release. Specific LDH-release was calculated according to the following formula: LDH-release %=100*(GA or control peptide treated cells—untreated cells)/(positive control-untreated cells). The IC50 values were extrapolated by logarithmic estimation. The LD50 in mg/kg was predicted using the formula, Log (LD50)=0.506×(log IC50)+0.475. […]

[5] = tested on: U373 cells; test: Annexin-V and propidium iodide apoptosis by flow cytometry; format: cell-based, human; settings: score 1/0
Protocol: Detection apoptosis by flow cytometry: To further assess cell cytotoxicity, the apoptotic effects of individual GA or control peptide was evaluated by the Annexin-V and propidium iodide (PI) dual staining method (Annexin-V-Fluos staining kit, Roche Diagnostics, Mannheim, Germany). As opposed to apoptotic cells, necrotic cells with ruptured cell membrane take up PI, the DNA binding dye. Thus, cells which take up both fluorochromes are a mixture of apoptotic and necrotic cells, whereas cells that exclude PI but bind Annexin V are (early) apoptotic cells. U373 cells cultured with varying concentrations of individual GA or control peptide (0.5 μM to 50 μM) for 24 hours were centrifuged and suspended in 100 μl of Annexin V/PI labelling solution (20 μl each of Annexin-V-Fluos labelling reagent and PI in 1 ml of binding buffer) for 15 min at room temperature. After washing the cells were resuspended in PBS:1% paraformaldehyde and analyzed using a FACScan flow cytometer (BD Biosciences, San Jose, Calif.).

[6] = biological target: T1, Recombinant human p65 protein (r-p65) (Homo sapiens, UniProt Q04206); test: Plate binding ELISA of GA/PGA with r-p65 (KD by method of Friguet)
T1 construct: purchased Ori-Gene Technologies Inc., Rockville, Md; TP320780
Protocol: We used similar method to determine direct binding kinetics of GA hexapeptides with human r-p65. […] Absorbance at 650 nm was measured with a mixing time of 30 s using BIORAD microplate reader. […] The dissociation constant of the interaction between the GA or the control peptide and r-p65 was determined by the method of Friguet et al., as described. A fraction of the bound r-p65 (x) and the ratio of bound r-p65 to the free GA or control peptide (y) was determined by the equations: x=(A0−A)/(A0), where A0 is the absorbance of r-p65anti-p65 complex in the absence of bound GA or control peptide and y=(A0−A)/(a0−i0)×(A0−A)/(A0), where a0 is the total concentration of GA or control peptide and i0 is the total concentration of r-p65.
Kinetics of PGA:-p65 interaction: The binding kinetics of top five PGA with full length human r-p65 was assessed as described. Plate bound GILZ-P or PGA at increasing concentrations was probed with r-p65-DDK (Ori-Gene Technologies Inc., Rockville, Md.) at constant concentration and detected with anti-DDK.

[7] = tested on: U373 cells; format: cell-based, human; settings: Example 9, PGA synthesized with TAT; read-out: IC50 of LDH release extrapolated from regression analysis
Protocol: Lactate dehydrogenase (LDH) assay: To detect direct GA-induced cell lysis we performed LDH release assays (Roche Molecular Diagnostics). […] Approximately 5×10^4 U373 cells/well were cultured in 96-well plates in the presence of increasing concentrations of individual GA or control peptide from 0.5 μM to 500 μM. Cells treated with 2% triton-X 100 (Sigma Aldrich, St. Louis, Mo.) for 10 minutes served as positive control. Untreated cells served as controls for spontaneous LDH-release. Specific LDH-release was calculated according to the following formula: LDH-release %=100*(GA or control peptide treated cells—untreated cells)/(positive control-untreated cells). The IC50 values were extrapolated by logarithmic estimation. The LD50 in mg/kg was predicted using the formula, Log (LD50)=0.506×(log IC50)+0.475.
Effects of PGA on membrane integrity and apoptosis: The top five PGA were covalently synthesized with the cell penetrating TAT (transcriptional transactivation) peptide to facilitate intracellular delivery (Genescript, N.J.). Membrane integrity of U373 microglial cells exposed to increasing concentration of each PGA from 0.5 μm to 500 μM was assessed by the leakage of intracellular lactate dehydrogenase (LDH) into culture medium (Roche, Ind.).

[8] = tested on: Aβ1-42 exposed HFB cells; test: Cytokines in culture medium of Aβ1-42 exposed HFB; format: cell-based, human; settings: PGA at IC50 concentration
[9] = dissociation constant, KD, method of Friguet et al.

T1 sequence (Q04206 whole entry): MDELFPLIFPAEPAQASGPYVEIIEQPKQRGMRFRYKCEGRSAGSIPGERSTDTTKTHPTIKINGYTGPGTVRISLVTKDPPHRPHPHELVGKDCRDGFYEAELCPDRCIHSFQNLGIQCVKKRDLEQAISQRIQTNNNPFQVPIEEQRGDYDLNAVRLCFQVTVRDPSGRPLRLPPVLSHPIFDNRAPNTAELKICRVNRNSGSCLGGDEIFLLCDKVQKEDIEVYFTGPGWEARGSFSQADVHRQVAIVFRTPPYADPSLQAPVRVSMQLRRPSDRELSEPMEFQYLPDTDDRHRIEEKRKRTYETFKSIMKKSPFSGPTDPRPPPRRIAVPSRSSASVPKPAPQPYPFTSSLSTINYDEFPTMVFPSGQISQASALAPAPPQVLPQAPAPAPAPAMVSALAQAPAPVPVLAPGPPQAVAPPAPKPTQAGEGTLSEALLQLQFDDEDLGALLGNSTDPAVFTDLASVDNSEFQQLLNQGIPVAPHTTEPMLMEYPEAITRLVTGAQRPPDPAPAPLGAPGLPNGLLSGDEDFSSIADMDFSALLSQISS

Substance	tolerance of HFB cultures (Δ-RLU, CTG) ([1]; 50 μM peptide)	relative expression of BCl2 in brain tissues [2]	relative expression of BclXL in brain tissues [2]	relative expression of CD14 mRNA in brain tissues [2]	cellular metabolic activity / viability (CTG assay) [3]	cell morphology [3]	LD50 estimated from IC50 [4] [mg/kg]	tolerance of HFB cultures (ΔRLU, CTG) ([1]; PGA at IC50 concentration)	% apoptosis at LD50 [5]	Kd ([6]; KD (uM), score 1/0) [µM]	Kd [6, 9] [µM]	IC50 [7] [µM]	LD50 (mM) [4]	AIL-1p concentration in culture supernatant (not shown) [8]	AIL-6 concentration in culture supernatant [8]	viability of Aβ1-42 exposed HFB cells ([1]; 50 μM peptide, vs untreated Aβ1-42 exposed cultures)	viability of Aβ1-42 exposed HFB cells ([1]; PGA at IC50 concentration, 24 hours)
Ac-APKPYQPRG-NH2 [CP-3]	significant toxicity	0.44+/−0.9	0.13+/−0.1	1.2+/−0.1	reduced the viability of the cells at both concentrations tested	morphological changes consistent with cell death	237.62	–	–	–	–	–	–	–	–	–	–
Ac-APKPYQPRG-NH2 [PGA-1]	–	–	–	–	–	–	–	significant toxicity	0 (>25)	> 3	4.28	2.27	0 (<100)	–	–	–	–
Ac-EPAPEQPDG-NH2 [CP-2]	significant toxicity	0.45+/−0.9	–	2.4+/−2	did not adversely affect the differentiated neuroblastoma cells	no apparent adverse effects on morphology	237.52	–	–	–	–	–	–	–	–	–	–
Ac-EPAPEQPDG-NH2 [PGA-5]	–	–	–	–	–	–	–	significant toxicity	0 (>25)	> 3	3.4	2	1 (>100)	significantly lower	significantly lower	–	–
Ac-EPAPYQPEG-NH2 [CP-1]	–	0.36+/−0.8	0.06+/−0.08	1+/−0.3	did not adversely affect the differentiated neuroblastoma cells	no apparent adverse effects on morphology	272.78	–	–	–	–	–	–	–	–	not significant	–
Ac-EPAPYQPEG-NH2 [PGA-3]	–	–	–	–	–	–	–	well tolerated	1 (<25)	> 3	3.27	0.98	1 (>100)	–	–	–	significantly higher
